From patent US8354430B2, “Monohydrochloride salt of 1-[3-[3-(4-chlorophenyl) propoxy]propyl]-piperidine” (priority 2005, dated 2013)

Key:
[1] = Stability to oxidation conditions (melting points under nitrogen and oxygen atmosphere); type: physicochemical
Method: Melting points of the above salts were also determined under nitrogen and oxygen atmosphere, in order to verify their stability to oxidation conditions.

[2] = Solubility of salts in water at room temperature, pH 4.5 and pH 7.4
mice = assay: Natural forgetting, two-trial object recognition; type: in vivo, mouse; conditions: tacrine 0.25 mg/kg, i.p. after T1
Method: Methods: Mice were submitted to the first trial (T1), placed in the box containing two identical objects and the time required by each animal to complete 8 sec of object exploration was determined. Exploration was considered to be directing the nose at a distance closer than 2 cm to the object and/or touching the object. Immediately after the first trial mice were treated with the vehicle or tacrine (0.25 mg/kg, i.p.). […] Mice were placed in the box for 5 min and exploration of each object together with motor activity was determined. The following parameters were measured: […]

[3] = Aqueous solubility at 23° C.; type: physicochemical; conditions: water
Description: The use of 1-[3-[3-(4-chlorophenyl)propoxy]propyl]-piperidine as the free base is limited because of its oily nature.

Compound | Melting point, N2 atmosphere (stability to oxidation conditions) [1] [°C] | Melting point, O2 atmosphere (stability to oxidation conditions) [1] [°C] | Solubility (% w/v) pH 4.5 ([2]; pH 4.5) [% w/v] | Solubility (% w/v) pH 7.4 ([2]; pH 7.4) [% w/v] | Solubility (% w/v) Water room T ([2]; water at room temperature) [% w/v] | natural forgetting (mice) | solubility [3] [mg/mL] | solubility (physchem; pH 4.5, aqueous buffer) [mg/mL] | solubility (physchem; pH 7.4, aqueous buffer) [mg/mL] | solubility (physchem; water) [mg/mL]
Clc1ccc(CCCOCCCN2CCCCC2)cc1 [Hydrogen succinate] | 63.21 | 63.46 | >100 | >100 | >100 | – | – | – | – | –
Nc1c2c(nc3ccccc13)CCCC2 [tacrine, reference compound] | – | – | – | – | – | significantly reduced | – | – | – | –
Hydrogen maleate | 90.85 | 90.74 | – | – | – | – | – | – | – | –
Clc1ccc(CCCOCCCN2CCCCC2)cc1.O=C(O)C(=O)O [Hydrogen oxalate, 1-[3-[3-(4-chlorophenyl)propoxy]propyl]-piperidine oxalate, reference compound] | 149.16 | 149.28 | – | – | – | – | 25 | 10 to 30 | 30 to 100 | 10 to 30
